The numbers were not newly measured in US20120065267A1, “COMPOSITIONS INCLUDING 3,5-L-T2 AND METHODS OF USE THEREOF” (priority 2010, published 2012), which cites them from elsewhere.

Like-named read-outs stand apart in the source and are kept apart here.

In data set [1] the test system is TR α1, β1 and β2. As to conditions: in vitro; cited from earlier work.
The test system of data set [2] is hypercholesterolemic patients. As to conditions: cited from earlier work.

Take `N[C@@H](Cc1cc(I)c(Oc2ccc(O)c(I)c2)c(I)c1)C(=O)O` [T3, (2S)-2-amino-3-[4-(4-hydroxy-3-iodophenoxy)-3,5-diiodophenyl]propanoic acid]: the “binding affinity relative to that of T2” value in data set [1] is given as 40-500 fold.
With `N[C@H](Cc1cc(I)c(Oc2ccc(O)cc2)c(I)c1)C(=O)O` [3,5-D-T2], in data set [2] (300 mg daily for 8 months), the “patients with coronary artery disease experiencing increased anginal symptoms” value is given as 7 of 13 and the “patients with coronary artery disease who died suddenly from presumed myocardial infarction” value is reported as 2 of the 13. Also, the “decrease in total serum cholesterol” value in data set [2] (300 mg daily, at 20 weeks) is reported as 20%. Besides, the “mean heart rate on treatment” value in data set [2] (300 mg daily, increase from 76) is listed as 88 beats per minute. The “efficacy at lower doses” value in data set [2] (doses of less than 250 mg/day) is listed as “ineffective”. Moreover, in data set [2] (euthyroid subjects, 300 mg daily for 8 months), the “decrease in body weight” value was 5%. Besides, in data set [2] (hypothyroid patients, 300 mg daily for 8 months), the “decrease in body weight” value is reported as 8%.
